From the supplement of paper PMC10307832

What was measured:
Experiment in all cases: relative viability (nuclei count vs DMSO), 5 days (fraction); higher = more cells survive
[1] = compound: C1=CC=C(C(=C1)C2=CC=C(C=C2)C3=CSC4=C3C(=C(C(=O)N4)C#N)O)O + O=C(c1cc(Cc2n[nH]c(=O)c3ccccc23)ccc1F)N1CCN(C(=O)C2CC2)CC1 [Olaparib] (partner 8 µM)
Summary of the method: (§1)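 One day after seeding in 1536-well plates, lung cancer cell lines were dosed by pin tool. Dosing was either single-drug or a fixed anchor-drug dose plus five library-drug doses (not always all listed) in √10 steps. After 5 days, nuclei were stained in one fix-and-stain step and counted on 4× images, and relative viability is the nuclei count of treated wells over that of vehicle wells, given as the median of duplicate plates.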

[2] = compound: CC1=CN2C(=O)C=C(N=C2C(=C1)C(C)NC3=CC=CC=C3)N4CCOCC4 [TGX 221] + COc1cc2c(Oc3ccc(NC(=O)C4(C(=O)Nc5ccc(F)cc5)CC4)cc3F)ccnc2cc1OCCCN1CCOCC1 [Foretinib] (partner 0.25 µM)
Summary of the method: as §1

[3] = compound: O=C(CCCCCCNC(=O)c1cnc(N(c2ccccc2)c2ccccc2)nc1)NO [Ricolinostat] + Nc1ncn([C@H]2C[C@H](O)[C@@H](CO)O2)c(=O)n1 [Decitabine] (partner 2 µM)
Summary of the method: as §1

[4] = compound: CC1=CN2C(=O)C=C(N=C2C(=C1)C(C)NC3=CC=CC=C3)N4CCOCC4 [TGX 221] + CC(=O)c1c(C)c2cnc(Nc3ccc(N4CCNCC4)cn3)nc2n(C2CCCC2)c1=O [Palbociclib] (partner 0.5 µM)
Summary of the method: as §1

Cell Line | relative viability ([1]; first compound 0.08 µM) | relative viability ([1]; first compound 0.253 µM) | relative viability ([1]; first compound 0.8 µM) | relative viability ([1]; first compound 2.53 µM) | relative viability ([1]; first compound 8 µM) | relative viability ([2]; first compound 0.08 µM) | relative viability ([2]; first compound 0.253 µM) | relative viability ([2]; first compound 0.8 µM) | relative viability ([2]; first compound 2.53 µM) | relative viability ([2]; first compound 8 µM) | relative viability ([3]; first compound 0.08 µM) | relative viability ([3]; first compound 0.253 µM) | relative viability ([3]; first compound 0.8 µM) | relative viability ([3]; first compound 2.53 µM) | relative viability ([4]; first compound 0.08 µM) | relative viability ([4]; first compound 0.253 µM) | relative viability ([4]; first compound 0.8 µM) | relative viability ([4]; first compound 2.53 µM) | relative viability ([4]; first compound 8 µM)
LCLC-97TM1 | 0.223 | 0.357 | 0.431 | 0.429 | 0.445 | 0.949 | 1.01 | 0.904 | 0.959 | 0.802 | 0.225 | 0.185 | 0.214 | 0.227 | 0.184 | 0.263 | 0.238 | 0.206 | 0.232
NCI-H1734 | 0.601 | 0.687 | 0.678 | 0.601 | 0.529 | 0.781 | 0.81 | 0.799 | 0.732 | 0.764 | 0.486 | 0.497 | 0.519 | 0.47 | 0.235 | 0.332 | 0.351 | 0.317 | 0.289
NCI-H661 | 0.64 | 0.799 | 0.724 | 0.843 | 0.708 | 1.03 | 0.987 | 1.02 | 1.09 | 0.82 | 0.552 | 0.511 | 0.581 | 0.489 | 0.427 | 0.43 | 0.396 | 0.406 | 0.376
SK-LU-1 | 0.465 | 0.431 | 0.435 | 0.608 | 0.408 | 0.808 | 0.703 | 0.768 | 0.63 | 0.657 | 0.607 | 0.604 | 0.638 | 0.524 | 0.342 | 0.359 | 0.357 | 0.379 | 0.317
LC-2-ad | 0.702 | 0.899 | 0.701 | 0.744 | 0.76 | 0.865 | 0.85 | 0.95 | 0.825 | 0.751 | 0.776 | 0.784 | 0.842 | 0.835 | 0.478 | 0.519 | 0.483 | 0.503 | 0.447
NCI-H1355 | 0.734 | 0.956 | 0.745 | 0.775 | 0.553 | 0.994 | 0.814 | 0.984 | 0.849 | 0.788 | 0.332 | 0.331 | 0.36 | 0.328 | 0.366 | 0.348 | 0.372 | 0.338 | 0.302
NCI-H1793 | 0.929 | 0.937 | 0.867 | 0.882 | 0.78 | 0.708 | 0.462 | 0.51 | 0.452 | 0.411 | 0.423 | 0.514 | 0.56 | 0.499 | 0.282 | 0.277 | 0.271 | 0.273 | 0.223
H3255 | 0.612 | 0.67 | 0.524 | 0.624 | 0.574 | 0.88 | 0.762 | 0.844 | 0.852 | 0.868 | 0.522 | 0.598 | 0.538 | 0.426 | 0.312 | 0.342 | 0.331 | 0.29 | 0.321
NCI-H2342 | 0.475 | 0.53 | 0.432 | 0.517 | 0.395 | 1.03 | 1.02 | 1.03 | 0.903 | 0.985 | 0.628 | 0.719 | 0.784 | 0.718 | 0.541 | 0.529 | 0.492 | 0.517 | 0.531
NCI-H838 | 0.522 | 0.963 | 0.811 | 0.784 | 0.773 | 1.04 | 0.952 | 0.945 | 0.799 | 0.7 | 0.44 | 0.471 | 0.489 | 0.539 | 0.213 | 0.187 | 0.19 | 0.188 | 0.179
NCI-H727 | 0.829 | 0.795 | 0.704 | 0.756 | 0.825 | 0.876 | 1.05 | 1.16 | 1.12 | 1.05 | 0.807 | 0.934 | 0.957 | 0.952 | 0.643 | 0.518 | 0.667 | 0.679 | 0.602
UMC-11 |  | 0.396 | 0.435 | 0.425 | 0.417 | 0.934 | 0.932 | 1 | 1.06 | 1.03 | 0.551 | 0.543 | 0.561 | 0.417 | 0.299 | 0.328 | 0.306 | 0.338 | 0.374
CAL-12T | 0.724 | 0.834 | 0.824 | 0.856 | 0.651 | 0.994 | 1.12 | 1.27 | 1.15 | 1.09 |  |  |  |  | 0.466 | 0.556 | 0.467 | 0.326 | 0.0733
NCI-H1755 | 0.989 | 0.901 | 0.875 | 0.841 | 0.916 | 0.926 | 0.884 | 0.82 | 0.763 | 0.781 | 0.66 | 0.649 | 0.696 | 0.665 | 0.36 | 0.422 | 0.385 | 0.421 | 0.436
